Source: ChEMBL document CHEMBL2417463, “Synthesis and identification of new flavonoids targeting liver X receptor β involved pathway as potential facilitators of Aβ clearance with reduced lipid accumulation” (J Med Chem, 2013)

Legend:
[1] = target: T1, Oxysterols receptor LXR-beta (Mus musculus) (UniProt Q60644); test: Agonist activity at LXRbeta in mouse RAW264.7 cells assessed as induction of ABCA1 promoter activation at 1 uM after 24 hrs by Dual-Glo luciferase reporter gene assay relative to vehicle-treated control; type: cell-based
T1 sequence (whole entry): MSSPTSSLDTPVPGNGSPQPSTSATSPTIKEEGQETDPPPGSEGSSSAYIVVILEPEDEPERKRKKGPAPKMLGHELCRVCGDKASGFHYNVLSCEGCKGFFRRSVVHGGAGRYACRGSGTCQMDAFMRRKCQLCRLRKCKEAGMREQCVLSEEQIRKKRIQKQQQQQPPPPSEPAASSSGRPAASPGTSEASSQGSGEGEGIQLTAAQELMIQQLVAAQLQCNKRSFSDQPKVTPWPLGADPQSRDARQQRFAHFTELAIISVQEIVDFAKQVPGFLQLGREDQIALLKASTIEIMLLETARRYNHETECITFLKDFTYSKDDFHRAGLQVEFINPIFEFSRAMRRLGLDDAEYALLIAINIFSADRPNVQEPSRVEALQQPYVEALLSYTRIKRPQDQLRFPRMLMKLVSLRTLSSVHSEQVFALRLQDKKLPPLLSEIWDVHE

[2] = target: T1, Oxysterols receptor LXR-beta (Mus musculus); test: Agonist activity at LXRbeta in mouse BV2 cells assessed as degradation of intracellular soluble amyloid beta42 at 1 uM preincubated for 18 hrs followed by soluble amyloid beta42 addition measured after 24 hrs by ELISA relative to vehicle-treated control; type: cell-based; details: BV-2

fold change (FC) [1]	Activity [2] [%]	Compound
1.76	–	Nc1ccc(C(=O)/C=C/c2cccc(Oc3ccccc3)c2)c(O)c1
2.09	33	COc1cccc(/C=C/C(=O)c2ccc(N)cc2O)c1
0.88	–	COc1cc(N)ccc1C(=O)/C=C/c1ccc2ccccc2c1
1.44	–	O=c1cc(-c2csc3ccccc23)oc2cc(O)ccc12
1.36	–	O=c1cc(-c2ccc3ccccc3n2)oc2cc(O)ccc12
1.17	–	O=c1cc(-c2cccc(Oc3ccccc3)c2)oc2cc(O)ccc12
1.55	–	Nc1ccc(C(=O)/C=C/c2ccc(-c3ccccc3)cc2)c(O)c1
1.22	–	CC(C)c1ccc(-c2cc(=O)c3ccc(O)cc3o2)cc1
1.47	–	Cc1ccc(-c2cc(=O)c3ccc(N)cc3o2)s1
1.73	–	CCc1ccc(/C=C/C(=O)c2ccc(N)cc2O)cc1
1.16	–	Nc1ccc(C(=O)/C=C/c2ccc(Cl)cc2)c(O)c1
1.37	–	CCOc1ccc(-c2cc(=O)c3ccc(N)cc3o2)cc1
2.31	42	Nc1ccc(C(=O)/C=C/c2csc3ccccc23)c(O)c1
1.03	–	COc1ccc(-c2ccc(-c3cc(=O)c4ccc(O)cc4o3)s2)cc1
1.66	18	O=C(O)c1ccc(-c2cc(=O)c3ccc(O)cc3o2)cc1
2.18	–	CC1=C(/C=C/C(C)=C\C=C\C(C)=C\C(=O)O)C(C)(C)CCC1
1.35	–	COc1cc(N(C)C)ccc1C(=O)/C=C/c1ccc2ccccc2c1
1.19	–	CN(CCOc1ccc(CC2SC(=O)NC2=O)cc1)c1ccccn1 (stereo not given)
1.86	23	CCOc1ccc(/C=C/C(=O)c2ccc(N)cc2O)cc1OC
1.08	–	CC(=O)Nc1ccc(C(=O)/C=C/c2ccc(C)s2)c(O)c1
1.92	16	CCOc1ccc(/C=C/C(=O)c2ccc(N)cc2O)cc1

fold change (FC) [1]	Activity [2] [%]	Compound
2	37	Cc1ccc(/C=C/C(=O)c2ccc(N)cc2O)s1
1.06	–	CCOc1ccc(/C=C/C(=O)c2ccc(N)cc2OC)cc1
0.98	–	COc1cc(/C=C/C(=O)c2ccc(N)cc2O)cc(OC)c1OC
1.12	–	Nc1ccc(C(=O)/C=C/c2cc(C(F)(F)F)cc(C(F)(F)F)c2)c(O)c1
2.05	–	CC(C)c1ccc(/C=C/C(=O)c2ccc(N)cc2O)cc1
1.15	–	O=c1cc(-c2ccc(-c3ccccc3)cc2)oc2cc(O)ccc12
1.5	–	COc1cc(N)ccc1C(=O)/C=C/c1ccc(C)s1
1.1	–	CC(C)OC(=O)C(C)(C)Oc1ccc(C(=O)c2ccc(Cl)cc2)cc1
1.3	–	Cc1ccc(-c2cc(=O)c3ccc(N)cc3o2)o1
1.02	–	Cc1ccc(/C=C/C(=O)c2ccc(N(C)C)cc2O)o1
1.76	39	Nc1ccc(C(=O)/C=C/c2c[nH]c3ccccc23)c(O)c1
1.9	–	Cc1ccc(CCC(=O)c2ccc(N)cc2O)o1
1.92	40	Nc1ccc(C(=O)/C=C/c2ccc3c(c2)OCO3)c(O)c1
1.2	–	COc1cc(N)ccc1C(=O)/C=C/c1ccc(C)o1
1.09	–	COc1ccc(-c2ccc(/C=C/C(=O)c3ccc(N)cc3O)s2)cc1
1.26	–	CSc1ccc(/C=C/C(=O)c2ccc(N)cc2O)cc1
1.57	7	O=c1cc(-c2ccc3ccccc3c2)oc2cc(O)ccc12
1.57	–	COc1cc(N(C)C)ccc1C(=O)/C=C/c1ccc(C)o1
1.36	–	Nc1ccc(C(=O)/C=C/c2ccc(F)cc2)c(O)c1
1.34	–	Nc1ccc(C(=O)CCc2ccc3ccccc3c2)c(O)c1
